Results: paper PMC12040169 (PLOS Biology, 2025)

Test: in vitro
Settings: human, hela cells, % viability

| Structure (SMILES) | viability at 28.5 h, 10 µM [%] | viability at 28.5 h, 10 µM (bulk resorufin, single well) [%] |
| --- | --- | --- |
| COc1ccccc1-c1nnc(NC(=O)COc2ccccc2)o1 [CBK287590] | 106 | – |
| O=C(c1cccs1)N1CCC2(CC1)Nc1ccccc1-n1cccc12 [CBK283489] | 99.3 | – |
| COc1ccc(S(=O)(=O)Nc2ccc(C)cc2)cc1C(=O)Nc1ccc(C)cc1 [CBK265172] | 94.7 | – |
| O=C1C2C3C=CC(C3)C2C(=O)N1CCN1CCN(S(=O)(=O)/C=C/c2ccccc2)CC1 (stereo not drawn) [CBK263663] | 88.4 | – |
| Nc1cc(=O)[nH]c(SCC(=O)N2CCc3ccccc32)n1 [CBK307424] | 94.4 | – |
| CCOc1ccc(N(Cc2cc3cc(C)ccc3nc2O)C(=O)c2ccccc2OC)cc1 [CBK265427] | 103 | – |
| O=C(NCCCNc1ccc([N+](=O)[O-])cc1)c1cccs1 [CBK066825] | 94.1 | – |
| N#Cc1ccc(CNC(=O)N2CCCC(C(=O)O)C2)cc1 (stereo not drawn) [CBK161352] | 89.5 | – |
| CC(=O)NCc1cccc(-c2cc(CO)cnc2-c2ccc(Cl)cc2)c1 [CBK161445] | 94.6 | – |
| COc1ccc2[nH]cc(CCNC(=O)c3ccc4[nH]c(=O)[nH]c4c3)c2c1 [CBK122721] | 93.4 | – |
| CCCCc1c(C(=O)O)cc(OC)cc1C(=O)O [CBK217866] | 93.5 | – |
| Cc1cc(N2CCN(C(=O)Cc3cccs3)CC2)nc(C(C)C)n1 [CBK305562] | 88.1 | – |
| Cc1ccc(C(=O)NC[C@H]2O[C@@H](CC(=O)N3CCOCC3)[C@H](O)[C@@H]2O)cc1 [CBK288925] | 85.5 | – |
| O=C(CN1CC[C@H]2NC(=O)COc3ccccc3CCCC[C@@H]2C1)NCc1ccccn1 [CBK292046] | 96.7 | – |
| CCN(CC(=O)NCc1ccc(F)cc1)C(=O)c1cc(C#N)c[nH]1 [CBK305221] | 87.9 | – |
| CCc1noc(CN2CCC(c3c[nH]c4ccc(OC)cc34)CC2)n1 [CBK305960] | 84.1 | – |
| O=C1CNC(=O)C2(C/C=C/C[C@H]3COCC[C@@H]3N1)CCN(C(=O)c1cccc(Cl)c1)CC2 [CBK292066] | 111 | – |
| CCn1c(SCC(N)=O)nnc1C(C)Oc1ccc(C)c(C)c1 (stereo not drawn) [CBK270289] | 88.4 | – |
| CN1CCCN(c2ccc(NS(=O)(=O)c3ccc(F)cc3F)c3ccccc23)CC1 [CBK001499C] | 64.8 | – |
| Cc1ccc(OCc2nnc(SCC(=O)O)n2N)cc1 [CBK266603] | 95.8 | – |
| COc1ccc(/C=N/NC(=O)Cc2cccn2C)cc1[N+](=O)[O-] [CBK262789] | 99.1 | – |
| Clc1cccc(-c2cccc(Nc3cccnc3)n2)c1Cl [CBK037800] | 102 | – |

| Structure (SMILES) | viability at 28.5 h, 10 µM [%] | viability at 28.5 h, 10 µM (bulk resorufin, single well) [%] |
| --- | --- | --- |
| Cc1ccc(C(=O)N2CCC(c3nc4ccccc4s3)CC2)cc1NS(C)(=O)=O [CBK254629] | 89.2 | – |
| Cc1nc2ccc(C(=O)NCCn3ccnc3C)cc2s1 [CBK282477] | 88.1 | – |
| Cc1[nH]c2cc(C(=O)NCCn3nccc3C)ccc2c1C [CBK283313] | 92.8 | – |
| O=C1NC2(CCN(C(=O)c3ccc(C(F)(F)F)c(F)c3)CC2)Oc2ccc(-c3ccccc3)cc21 [CBK115841] | 99.7 | – |
| Cc1cc(C(=O)O)c(NC(=O)c2cccc(Cl)c2)s1 [CBK126813] | 100 | – |
| O=C(Cn1cccc(C(=O)NC2CCCC2)c1=O)NCC1(c2ccccc2)CCCC1 [CBK285975] | 96.2 | – |
| COc1ccc(N2C(=O)C3C(CC(C)C)NC4(C(=O)N(CC(=O)Nc5ccc(C)cc5)c5ccccc54)C3C2=O)cc1 (stereo not drawn) [CBK266034] | 95.9 | – |
| O=C(Nc1cccc(Cl)c1)Nc1ccccc1NC(=O)Nc1cccc(Cl)c1 [CBK267624] | 92.4 | – |
| CCc1c(C)nc2ccc(NC(C)=O)cc2c1SCCC(=O)O [CBK159465T] | 98.7 | – |
| O=C(O)CCn1c2ccccc2c2ccccc21 [CBK000208] | 87.7 | – |
| FC(F)(F)c1ccnc(Sc2cccc(Cl)c2)c1 [CBK115234] | 94.8 | – |
| Cc1ccnc2nc(C(=O)OC(C)C(=O)NC3CC3)nn12 (stereo not drawn) [CBK304998] | 92.5 | – |
| COc1ccccc1N1CCN(C(=O)NCc2cnc(C)cn2)CC1 [CBK155367] | 105 | – |
| Cc1ccccc1-c1ccccc1CC1(C(=O)N(C)C)CCN(C(=O)C2CCCCC2)CC1 [CBK285718] | 98.2 | – |
| COc1ccc(NC(=O)N[C@H]2C[C@@H](c3nc(-c4ccc(OC)cc4)no3)N(C)C2)cc1 [CBK288862] | 102 | – |
| CCn1c(SCC(=O)Nc2ccccc2OC)nnc1-c1ccc(N)cc1 [CBK265859] | 111 | – |
| CC(Cn1cccn1)NS(=O)(=O)c1ccc(N2CCCC2=O)cc1 (stereo not drawn) [CBK305606] | 83.7 | – |
| CCCN1CCC(NC(C)CCCC(C)(C)O)CC1 (stereo not drawn) [CBK261932] | 99.3 | – |
| C#CCNC(=O)c1nn(Cc2ccc(CN3C(=O)CCC3=O)cc2)c2ccc(OC)cc12 [CBK048668] | 86.2 | – |
| CCO/C(C)=C/c1sc2ccc3ccccc3c2[n+]1CCCS(=O)(=O)[O-] [CBK260948] | 95.1 | – |
| O=C1c2cccc3cccc(c23)C(=O)N1CCN1CCN(CC(O)COc2ccc(Cl)cc2Cl)CC1 (stereo not drawn) [CBK264881] | 94.5 | – |
| COc1cc2nc(NC(=O)C3COc4ccccc4O3)sc2cc1OC (stereo not drawn) [CBK287702] | 109 | – |

| Structure (SMILES) | viability at 28.5 h, 10 µM [%] | viability at 28.5 h, 10 µM (bulk resorufin, single well) [%] |
| --- | --- | --- |
| NC(=O)c1cccc(-c2cnc(N)c(NCc3ccco3)n2)c1 [CBK063660] | 116 | – |
| COc1ccccc1-c1cc(Nc2cccc(N(C)C)c2)ncn1 [CBK091011] | 95.5 | – |
| CCOC(=O)c1cnn(-c2ccccc2)c1NS(=O)(=O)c1cccc(Cl)c1C [CBK024055] | 84.6 | – |
| COc1ccc(CNC(=O)c2cc(S(=O)(=O)N3CCCC3)c[nH]2)cc1 [CBK304601] | 102 | – |
| Cc1nn(CC(=O)N2CCCCCC2)c(=O)c2cc3ccsc3n12 [CBK284060] | 84.8 | – |
| CCc1nccn1CCCNC(=O)Nc1cc(-c2cccnc2)nn1C [CBK306657] | 88.3 | – |
| Cc1cnn(CC(=O)N2CCCC(COc3ccccc3F)C2)c1 (stereo not drawn) [CBK281999] | 102 | – |
| N#CCCN(C(=O)NCc1ccc(F)cc1)C1CCCCC1 [CBK156372] | 86.5 | – |
| Cn1c(SCCN2CCOCC2)nnc1-c1cccs1 [CBK010243] | 89.3 | – |
| Cn1nc(C2CCN(Cc3ccccc3)CC2)c2cccnc21 [CBK285095] | 94.9 | – |
| Cc1ccc(C)c(-c2csc3c(=O)[nH]cnc23)c1 [CBK288556] | 101 | – |
| Cc1ccc(Cl)c(OCc2nnc(SCC(=O)O)n2N)c1 [CBK268992] | 105 | – |
| CCCc1nnc(SCC(=O)Nc2ccc(CN3CCOCC3)cc2)[nH]1 [CBK305583] | 82.4 | – |
| O=C(O)c1cc(S(=O)(=O)NCc2ccccc2)ccc1Br [CBK261768] | 96.9 | – |
| CCc1onc(C)c1C(=O)NCC1CCCCN1CC(C)C (stereo not drawn) [CBK305124] | 106 | – |
| N#Cc1c(C(F)(F)F)cc(-c2ccncc2)nc1SCCN1CCCCCC1 [CBK267451] | 85.3 | – |
| OCCN1CCN(CC(O)COc2ccc(Cl)cc2Cl)CC1 (stereo not drawn) [CBK278198C] | 108 | – |
| COC(=O)c1sc2ncccc2c1NS(=O)(=O)c1cc(Br)ccc1OC [CBK049971] | 91.9 | – |
| Cc1cc(NC(=O)CC2CC2)c2ccccc2n1 [CBK116257] | 98.6 | – |
| Cc1c(Cl)c(C(F)(F)F)nn1CCCNC(=S)Nc1ccc(S(N)(=O)=O)cc1 [CBK267113] | 100 | – |
| Cc1c(-c2csc(CC#N)n2)sc2ccccc12 [CBK020828] | 65.6 | – |
| CC1=C[C@@H](CNS(=O)(=O)c2cccs2)[C@H](C(C)C)C[C@H]1CC(=O)O [CBK289210] | 92.4 | – |

| Structure (SMILES) | viability at 28.5 h, 10 µM [%] | viability at 28.5 h, 10 µM (bulk resorufin, single well) [%] |
| --- | --- | --- |
| CCN(CC)C(=O)Cn1nc2c(C)cc3ccccc3n2c1=O [CBK283879] | 84.1 | – |
| C(#Cc1ccc(-c2nc(-c3ccc(Sc4ccccc4)cc3)c(-c3ccc(Sc4ccccc4)cc3)[nH]2)cc1)c1ccccc1 [CBK261954] | 95.3 | – |
| Cc1nc(C)c(C(=O)N2CCC(c3cc4ncccc4[nH]3)CC2)s1 [CBK283396] | 101 | – |
| O=C(COc1ccccc1)Nc1ccccc1N1CCNCC1 [CBK028279T] | 108 | – |
| COC1CCCN(Cc2cncn2C2CCCCC2)C1 (stereo not drawn) [CBK306542] | 101 | – |
| c1ccc(-c2cc(CC3(NCc4cccnc4)COC3)no2)nc1 [CBK289238] | 83.5 | – |
| Cc1ccc(NC(=O)c2cc(NC(=O)C3CC=CCC3C(=O)O)ccc2N2CCOCC2)cc1Cl (stereo not drawn) [CBK265323] | 105 | – |
| Cc1cccnc1Nc1ccc(C2CCCCN2Cc2ccc3nccnc3c2)cn1 (stereo not drawn) [CBK286133] | 89.8 | – |
| Oc1cc(C(F)(F)F)nc(Nc2ccccc2)n1 [CBK000517] | 89.3 | – |
| O=C1CCC(C(=O)N2CCCC(c3cc4ccccc4cn3)C2)CC1 (stereo not drawn) [CBK284989] | 102 | – |
| COCc1nc2n(n1)CC(NC1CCc3ccccc3CC1)CC2 (stereo not drawn) [CBK304737] | 96.1 | – |
| Clc1ccccc1-c1nnn(Cc2ccc(-c3nnn[nH]3)cc2)n1 [CBK267838] | 89.3 | – |
| O=C(CSc1ncnc2c1oc1ccccc12)Nc1ccccc1F [CBK287393] | 87.3 | – |
| NC(=O)C[S+]([O-])C(c1ccccc1)c1ccccc1 (stereo not drawn) [CBK026184] | – | 102 |
| CSc1cccc(CN2C[C@H]3CN(C(=O)C4CCC4)C[C@@]3(C(=O)O)C2)c1 [CBK307645] | 88.4 | – |
| CCN(C(=O)Cn1c(=O)cc(C)c2ccccc21)C1CCN(C)CC1 [CBK281871] | 86.8 | – |
| CC(=O)Nc1ccc(NCc2csc(C3CCCO3)n2)c(C(F)(F)F)c1 (stereo not drawn) [CBK304161] | 101 | – |
| OCCNc1nc(N2CCN(Cc3ccccc3)CC2)nc2ccccc12 [CBK266667C] | 92.5 | – |
| O=C1OC(c2ccc(N3C(=O)c4cccc5cccc(c45)C3=O)cc2)(c2ccc(N3C(=O)c4cccc5cccc(c45)C3=O)cc2)c2ccccc21 [CBK261845] | 95.3 | – |
| CC(=O)Nc1ccc(N2C(=O)CSC2c2ccccc2[N+](=O)[O-])cc1 (stereo not drawn) [CBK294443] | 110 | – |
| Cc1csc(N2CCN(C(=O)CCc3nc(C(C)C)no3)CC2)n1 [CBK305341] | 99.4 | – |
